Measured values: patent publication US5457091A, “N1-substituted 1H-1,2,3-triazolo[4,5,-D]pyrimidines, a process for their preparation and their use as antiviral agents” (priority 1992, dated 1995)
≈ marks a conversion by molar mass, not a printed value. Where two headings read alike, the source gives them in different places.

Legend:
[1] = test system: HSV-1 labialis; assay: CPE inhibition, HSV-1 labialis in Vero cells; format: cell-based, type 1 herpes simplex virus; conditions: Human alphaherpesvirus 1, MIC = concentration protecting 50% of cells from CPE
Protocol: (§1) The antiviral activity of the test substances on various human pathogenic DNA and RNA viruses was investigated in cell culture test systems.
(§2) The test substances are diluted in ethanol to a final concentration of 1 mg/ml before the test, and Dulbecco's minimal essential medium (MEM) is used for further dilution steps. For the test, serial 3-fold dilutions of the test substances are made up in 96-well microtiter plates. Monkey kidney cells (Veto) in medium199 (5% FCS) or human embryonic diploid pulmonary fibroblast cells MRC-5 (Whittaker) are added in a concentration of 2×10^4 cells/well and incubated at 37° C. (5% CO2) for 3 h.
(§3) The test mixtures contain the test substance in concentrations from 400 μg/ml to 0.18 μg/ml in MEM supplemented with 4% FCS (HeLa) or 2% FCS (Veto), 100 U/ml penicillin G and 100 μg/ml streptomycin.
(§4) The cells are then infected with type 1 herpes simplex virus (corneas), type I herpes simplex virus VR733, type 1 herpes simplex virus VR539 (hominis), type 2 herpes simplex virus VR734 (MS), human cytomegalovirus VR977 or varicella zoster virus VR586 in concentrations at which the cell lawn is completely destroyed within 3 days (CMV: 7 days, VZV: 10 days) (for example HSV-1 corneae: 0.035 PFU/Vero cell, HSV-2: 0.066 PFU/Vero cell).
(§5) The cultures are incubated at 37° C. in the presence of 5% CO2. All the investigations are carried out as duplicate determinations; controls are determined only once per plate.
(§6) The untreated infection controls show a complete cytopathogenic effect (CPE) after incubation for a further 48 h (HCMV after 6 days, VZV after 9 days). After microscopic inspection of the cell cultures (HSV, HCMV, VZV), they are then stained (only HSV) with neutral red in accordance with the vital staining method of Finter (1966). The antiviral activity of a test substance is defined as the minimum inhibitory concentration (MIC) which is required to protect 50% of the cells from the cytopathogenic effect of the virus.

[2] = test system: HCMV VR977; assay: CPE inhibition, HCMV VR977 in MRC-5 cells; format: cell-based, human cytomegalovirus; conditions: Human betaherpesvirus 5, MRC5, MIC = concentration protecting 50% of cells from CPE
Protocol: as §1, §2, §3, §4, §5, §6

[3] = test system: HSV-1 VR539; assay: CPE inhibition, HSV-1 VR539 in Vero cells; format: cell-based, type 1 herpes simplex virus; conditions: Human alphaherpesvirus 1, MIC = concentration protecting 50% of cells from CPE
Protocol: as §1, §2, §3, §4, §5, §6

[4] = Cytotoxicity by microscopic inspection, MRC-5 cells; format: cell-based; conditions: human, read-out: MTD (maximum tolerated dose)
Protocol: as §2, §3, §5
(§7) After incubation for 24 h, the cytotoxicity of the test substances is determined by microscopic inspection of the cell cultures. The maximum tolerated dose (MTD) is designated as the highest concentration of product which, under the said test conditions, is insufficient to cause microscopically detectable cell damage.

[5] = test system: HSV-2 VR734; assay: CPE inhibition, HSV-2 VR734 in Vero cells; format: cell-based, type 2 herpes simplex virus; conditions: Human alphaherpesvirus 2, MIC = concentration protecting 50% of cells from CPE
Protocol: as §1, §2, §3, §4, §5, §6

[6] = test system: HSV-1 VR733; assay: CPE inhibition, HSV-1 VR733 in Vero cells; format: cell-based, type 1 herpes simplex virus; conditions: Human alphaherpesvirus 1, MIC = concentration protecting 50% of cells from CPE
Protocol: as §1, §2, §3, §4, §5, §6

[7] = test system: HSV-1 corneae; assay: CPE inhibition, HSV-1 corneae in Vero cells; format: cell-based, type 1 herpes simplex virus; conditions: Human alphaherpesvirus 1, MIC = concentration protecting 50% of cells from CPE
Protocol: as §1, §2, §3, §4, §5, §6

[8] = Cytotoxicity by microscopic inspection, Vero cells; format: cell-based; conditions: monkey
Protocol: as §2, §3, §5, §7

[9] = test system: herpesviruses; assay: Antiviral activity against herpesviruses (general statement); conditions: in words
[10] = test system: VZV VR586; assay: CPE inhibition, VZV VR586 in MRC-5 cells; format: cell-based, varicella zoster virus; conditions: Human alphaherpesvirus 3, MRC5, read-out: MIC VZV VR586
Protocol: as §1, §2, §3, §5
as §6, with “After” for “The untreated infection controls show a complete cytopathogenic effect (CPE) after incubation for a further 48 h (HCMV after 6 days, VZV after 9 days). After”

[11] = test system: HSV-1; assay: Therapeutic efficacy in NMRI mice infected intraperitoneally with HSV-1; format: in vivo; conditions: for Surviving/group size: observed 2 weeks; for ED50: Human alphaherpesvirus 1, from Reed & Muench, read-out: IC50 (the source's name)
[12] = Vero cells, 24 h, read-out: MTD (maximum tolerated dose)

Structure (SMILES) | EC50 [1] | EC50 [2] | EC50 [3] | MNTC at 24 h [4] | EC50 [5] | EC50 [6] | EC50 [7] | activity against herpesviruses [9] | EC50 [10] | MNTC at 24 h [8, 12] | Average survival time ([11]; 9 × 3 μmol/kg ip) | Surviving/group size ([11]; 9 × 3 μmol/kg ip) | Average survival time ([11]; 9 × 3 μmol/kg po) | Surviving/group size ([11]; 9 × 3 μmol/kg po) | Surviving/group size ([11]; 9 × 10 μmol/kg ip) | Average survival time ([11]; 9 × 10 μmol/kg po) | Surviving/group size ([11]; 9 × 10 μmol/kg po) | Surviving/group size ([11]; 9 × 30 μmol/kg ip) | ED50 ([11]; ip) | ED50 ([11]; po) | other results
Nc1nc2c(ncn2COCCO)c(=O)[nH]1 [Aciclovir, reference compound] | 0.56 µg/mL (≈ 2.49 µM) | 1.16 µg/mL (≈ 5.15 µM) | 0.98 µg/mL (≈ 4.35 µM) | ≥ 400 µg/mL | ≤ 0.4 µg/mL | 0.56 µg/mL (≈ 2.49 µM) | ≤ 0.98 µg/mL | – | – | – | – | – | – | – | – | – | – | – | – | – | MNTC at 24 h ([8]; vero cells): ≥ 400 µg/mL
CC(C)OCC(COC(C)C)OCn1nnc2nc(N)ncc21 [Example 7, 5-amino-1H-1-[(1,3-bis-isopropoxy-2-propoxy)methyl]-1,2,3-triazolo[4,5-d]pyrimidine] | – | – | – | – | – | – | – | particularly high activity against herpesviruses | – | – | – | – | – | – | – | – | – | – | – | – | –
CC(=O)Nc1ncc2c(nnn2COC(CO)CO)n1 [Example 8, 5-acetamido-1H-1-[(1,3-dihydroxy-2-propoxy)methyl]-1,2,3-triazolo[4,5-d]pyrimidine] | 7.68 µg/mL (≈ 27.2 µM) | 7.13 µg/mL (≈ 25.3 µM) | 24.7 µg/mL (≈ 87.5 µM) | ≥ 311 µg/mL | 37 µg/mL (≈ 131 µM) | 6.58 µg/mL (≈ 23.3 µM) | 11.5 µg/mL (≈ 40.8 µM) | – | 0.18 µg/mL (≈ 0.638 µM) | ≥ 333 µg/mL | – | – | – | – | – | – | – | – | – | – | –
Nc1ncc2c(nnn2COC(CO)CO)n1 [Example 9, 5-amino-1H-1-[(1,3-dihydroxy-2-propoxy)methyl]-1,2,3-triazolo[4,5-d]pyrimidine] | 1.1 µg/mL (≈ 4.58 µM) | < 0.27 µg/mL | 4.94 µg/mL (≈ 20.6 µM) | ≥ 356 µg/mL | 2.93 µg/mL (≈ 12.2 µM) | 1.28 µg/mL (≈ 5.33 µM) | 1.65 µg/mL (≈ 6.87 µM) | particularly high activity against herpesviruses | < 0.18 µg/mL | ≥ 333 µg/mL | 6.3 ± 0.6 days | 2/5 | 8.8 ± 1.6 days | 0/5 | 5/5 | 6.2 ± 0.5 days | 0/5 | 5/5 | 3.7 µmol/kg | > 30 µmol/kg | Average survival time ([11]; 9 × 30 μmol/kg po): 8.0 ± 1.7 days; Surviving/group size ([11]; 9 × 30 μmol/kg po): 0/5
CC(=O)OCC(COC(C)=O)OCn1nnc2nc(N)ncc21 [Example 10, 5-amino-1H-1-[(1,3-diacetoxy-2-propoxy)methyl]-1,2,3-triazolo [4,5-d]pyrimidine] | 9.88 µg/mL (≈ 30.5 µM) | < 0.3 µg/mL | 24.7 µg/mL (≈ 76.1 µM) | ≥ 74.1 µg/mL | 24.7 µg/mL (≈ 76.1 µM) | 11.5 µg/mL (≈ 35.5 µM) | 14.8 µg/mL (≈ 45.7 µM) | particularly high activity against herpesviruses | < 0.18 µg/mL | ≥ 311 µg/mL | – | – | – | – | – | – | – | – | < 9 µmol/kg | 19.7 µmol/kg | Average survival time ([11]; 9 × 9 μmol/kg ip): 11.0 ± 1.4 days; Surviving/group size ([11]; 9 × 9 μmol/kg ip): 3/5; Average survival time ([11]; 9 × 9 μmol/kg po): 8.8 ± 1.8 days; Surviving/group size ([11]; 9 × 9 μmol/kg po): 0/5; Surviving/group size ([11]; 9 × 31 μmol/kg ip): 5/5; Average survival time ([11]; 9 × 31 μmol/kg po): 12.0 days; Surviving/group size ([11]; 9 × 31 μmol/kg po): 4/5; Surviving/group size ([11]; 9 × 93 μmol/kg ip): 5/5; Surviving/group size ([11]; 9 × 93 μmol/kg po): 5/5
Nc1nc(O)c2ncn(COC(CO)CO)c2n1 [Ganciclovir, reference compound] | ≤ 0.18 µg/mL | 0.06 µg/mL (≈ 0.235 µM) | 1.65 µg/mL (≈ 6.46 µM) | ≥ 400 µg/mL | 1.93 µg/mL (≈ 7.56 µM) | 0.95 µg/mL (≈ 3.72 µM) | 0.85 µg/mL (≈ 3.33 µM) | – | 6.13 µg/mL (≈ 24 µM) | ≥ 400 µg/mL | 8.0 ± 0 days | 3/5 | 11.3 ± 1.5 days | 1/5 | 5/5 | 9.5 ± 0.7 days | 3/5 | 5/5 | < 3 µmol/kg | 6.8 µmol/kg | Surviving/group size ([11]; 9 × 30 μmol/kg po): 5/5
